# Data taken from patent US12281363B2, “Methods for detecting antiviral-drug resistant virus” (Secretary of State for Health and Social Care, priority 2018, dated 2025).
# Like-named read-outs stand apart in the source and are kept apart here.
# Test system: HSV-2
# Assay: Plaque reduction assay, HSV-2 clinical isolates on Vero cells
# Assay type: cell-based
# Conditions: for IC50: Human alphaherpesvirus 2, Vero
# Excerpt: Viral isolates were used to infect a sub-confluent monolayer of Vero cells at a concentration of 75 or 50 plaque forming units (PFU) per well for HSV-1 and HSV-2, respectively. […] CMC medium typically used to create a semisolid interface and prevents indiscrimate viral spreading. Other materials (e.g. agar) may also be used to create this interface.
# Cells were fixed with 10% formalin and stained with crystal violet before enumeration of the plaques (microscopic observation or use of fluorescent antibodies for detection is also suitable). The data obtained from these experiments were then expressed as percent inhibition of viral infectivity relative to the no drug control.
# Definitions of phenotypic drug susceptibility classification as sensitive or resistant were as follows: ACV, <3 μM or >40 μM; PCV, <10 μM or >40 μM; CDV, <24 μM or >30 μM; FOS, <250 μM or >400 μM; and ACV, <6.5 μM or >40 μM; PCV, <38 μM or >40 μM; FOS, <250 μM or >400 μM for HSV-1 and HSV-2, respectively. Any IC50 values falling in between these sensitive and resistant cut-offs were reported as intermediate resistance.
# The phenotype (i.e. reactivity to a drug) of the virus was characterised by the plaque reduction assay as described above. The present inventors have characterised the resistance-causing phenotype of a large number of TK and DNA pol mutations.
smiles,measurement,setting,value
"Nc1nc2c(ncn2COCCO)c(=O)[nH]1 [Aciclovir, acyclovir]",Level of resistance,HSV-2 DNA pol R628G (18820>G),weak/intermediate resistance
same,IC50,"isolate HPG001, HSV-2 TK A125T (373G>A), read-out: Drug susceptibility (IC50 value)",1.53 µM
same,IC50,"isolate HPG001, HSV-2 pol H714R (2141A>G), read-out: Drug susceptibility (IC50 value)",1.53 µM
same,IC50,"isolate HPG004, HSV-2 pol M494T (1481T>C), also pol S729N, read-out: Drug susceptibility (IC50 value)",> 40 µM
same,IC50,"isolate HPG007, HSV-2 pol R628G (1882C>G), read-out: Drug susceptibility (IC50 value)",28.6 µM
same,IC50,"isolate HPG017, HSV-2 TK Q186H (558G>T), read-out: Drug susceptibility (IC50 value)",10.2 µM
same,IC50,"isolate HPG022, HSV-2 TK E213D (639A>C), read-out: Drug susceptibility (IC50 value)",4.46 µM
same,IC50,"isolate HPG022, HSV-2 pol D174Y (520G>T), read-out: Drug susceptibility (IC50 value)",4.46 µM
same,IC50,"isolate HPG023, HSV-2 TK Q186H (558G>T), read-out: Drug susceptibility (IC50 value)",12.1 µM
same,IC50,"isolate HPG024, HSV-2 TK E213D (639A>C), read-out: Drug susceptibility (IC50 value)",2.5 µM
same,IC50,"isolate HPG028, HSV-2 TK 98stop or A94fs (276delG, 278delG, 279delG, or 280delG), read-out: Drug susceptibility (IC50 value)",> 40 µM
same,IC50,"isolate HPG028, HSV-2 pol E776Q (2326G>C), also TK deletion (G) nt 276-280, read-out: Drug susceptibility (IC50 value)",> 40 µM
same,IC50,"isolate HPG028, HSV-2 pol R775C, R775W (2323C>T; 2325C>G), also TK deletion (G) nt 276-280, read-out: Drug susceptibility (IC50 value)",> 40 µM
same,IC50,"isolate HPG030, HSV-2 TK Q90stop (268C>T), read-out: Drug susceptibility (IC50 value)",> 40 µM
same,IC50,"isolate HPG030, HSV-2 pol E761K (2281G>A), also TK Q90stop, read-out: Drug susceptibility (IC50 value)",> 40 µM
same,IC50,"isolate HPG036, HSV-2 TK E84K (250G>A), read-out: Drug susceptibility (IC50 value)",> 40 µM
same,IC50,"isolate HPG038, HSV-2 TK R34C (100C>T), read-out: Drug susceptibility (IC50 value)",2.04 µM
same,IC50,"isolate HPG044, HSV-2 TK M86L (256A>C), read-out: Drug susceptibility (IC50 value)",> 40 µM
same,IC50,"isolate HPG048, HSV-2 TK Q90stop (268C>T), read-out: Drug susceptibility (IC50 value)",> 40 µM
same,IC50,"isolate HPG048, HSV-2 pol E761K (2281G>A), also TK Q90stop, read-out: Drug susceptibility (IC50 value)",> 40 µM
same,IC50,"isolate HPG057, HSV-2 TK 98stop or A94fs (276delG, 278delG, 279delG, or 280delG), read-out: Drug susceptibility (IC50 value)",> 40 µM
same,IC50,"isolate HPG058, HSV-2 TK 183stop or P154fs (458delC, 459delC, 460delC, or 461delC), read-out: Drug susceptibility (IC50 value)",36.2 µM
same,IC50,"read-out: Drug susceptibility (IC50 value), isolate HPG034, HSV-2 TK L313S (938A>C)",35.8 µM
same,IC50,"read-out: Drug susceptibility (IC50 value), isolate HPG056, HSV-2 pol M447L (1339A>C)",1.56 µM
same,IC50,"read-out: Drug susceptibility Aciclovir (ACV), isolate HPG001, HSV-2 TK A125T (373G>A)",< 6.5 µM
same,IC50,"read-out: Drug susceptibility Aciclovir (ACV), isolate HPG001, HSV-2 pol H714R (2141A>G)",< 6.5 µM
same,IC50,"read-out: Drug susceptibility Aciclovir (ACV), isolate HPG004, HSV-2 pol M494T (1481T>C), also pol S729N",> 40 µM
same,IC50,"read-out: Drug susceptibility Aciclovir (ACV), isolate HPG007, HSV-2 pol R628G (1882C>G)",6.5 to 40 µM
same,IC50,"read-out: Drug susceptibility Aciclovir (ACV), isolate HPG017, HSV-2 TK Q186H (558G>T)",6.5 to 40 µM
same,IC50,"read-out: Drug susceptibility Aciclovir (ACV), isolate HPG022, HSV-2 TK E213D (639A>C)",< 6.5 µM
same,IC50,"read-out: Drug susceptibility Aciclovir (ACV), isolate HPG022, HSV-2 pol D174Y (520G>T)",< 6.5 µM
same,IC50,"read-out: Drug susceptibility Aciclovir (ACV), isolate HPG023, HSV-2 TK Q186H (558G>T)",6.5 to 40 µM
same,IC50,"read-out: Drug susceptibility Aciclovir (ACV), isolate HPG024, HSV-2 TK E213D (639A>C)",< 6.5 µM
same,IC50,"read-out: Drug susceptibility Aciclovir (ACV), isolate HPG028, HSV-2 TK 98stop or A94fs (276delG, 278delG, 279delG, or 280delG)",> 40 µM
same,IC50,"read-out: Drug susceptibility Aciclovir (ACV), isolate HPG028, HSV-2 pol E776Q (2326G>C), also TK deletion (G) nt 276-280",> 40 µM
same,IC50,"read-out: Drug susceptibility Aciclovir (ACV), isolate HPG028, HSV-2 pol R775C, R775W (2323C>T; 2325C>G), also TK deletion (G) nt 276-280",> 40 µM
same,IC50,"read-out: Drug susceptibility Aciclovir (ACV), isolate HPG030, HSV-2 TK Q90stop (268C>T)",> 40 µM
same,IC50,"read-out: Drug susceptibility Aciclovir (ACV), isolate HPG030, HSV-2 pol E761K (2281G>A), also TK Q90stop",> 40 µM
same,IC50,"read-out: Drug susceptibility Aciclovir (ACV), isolate HPG034, HSV-2 TK L313S (938A>C)",6.5 to 40 µM
same,IC50,"read-out: Drug susceptibility Aciclovir (ACV), isolate HPG036, HSV-2 TK E84K (250G>A)",> 40 µM
same,IC50,"read-out: Drug susceptibility Aciclovir (ACV), isolate HPG038, HSV-2 TK R34C (100C>T)",< 6.5 µM
same,IC50,"read-out: Drug susceptibility Aciclovir (ACV), isolate HPG044, HSV-2 TK M86L (256A>C)",> 40 µM
same,IC50,"read-out: Drug susceptibility Aciclovir (ACV), isolate HPG048, HSV-2 TK Q90stop (268C>T)",> 40 µM
same,IC50,"read-out: Drug susceptibility Aciclovir (ACV), isolate HPG048, HSV-2 pol E761K (2281G>A), also TK Q90stop",> 40 µM
same,IC50,"read-out: Drug susceptibility Aciclovir (ACV), isolate HPG056, HSV-2 pol M447L (1339A>C)",< 6.5 µM
same,IC50,"read-out: Drug susceptibility Aciclovir (ACV), isolate HPG057, HSV-2 TK 98stop or A94fs (276delG, 278delG, 279delG, or 280delG)",> 40 µM
same,IC50,"read-out: Drug susceptibility Aciclovir (ACV), isolate HPG058, HSV-2 TK 183stop or P154fs (458delC, 459delC, 460delC, or 461delC)",6.5 to 40 µM
